Data: patent publication US12576059B2, “Methods and compositions for treatment of inflammatory disease” (priority 2021, dated 2026)

Assays:
healthy mice = conditions: in vivo
Experimental: (§1) Mouse diet was from Research Diets (New Brunswick, NJ) based on fat-free AIN-93G. Fat was added at 11.3% by weight total fat and 0.25% either normal H-AA or D-AA respectively (Table 5).
Male and Female BALB/c and C57BL/6 mice were provided with standard environmental conditions i.e., 22±1° C., 55±5% humidity and 12 h light/dark cycle with free food and water access. At the age of six weeks, animals were split into 8 groups (n=160 total, 20 of each gender) and were continuously fed ad libitum on the diet containing either H-AA or D-AA for 2, 4, 6 or 8 weeks at the daily rate of ca. 5 g of diet per mouse for the duration of the study. The other two groups of animals (n=40, 20 of each gender) received neither PUFA-enriched diets nor LPS served as controls. The body weight and food intake were measured once a week. After completing the appropriate diet course, half of the mice in each group (10 females and 10 males) (i) underwent the procedure of bronchoalveolar lavage (BAL) to accomplish cytological smears, (ii) were subjected to tissue harvesting and collection of colon contents (after humane euthanasia with lethal dose of sodium thiopental, 100 mg/kg intravenously). On the ninth week of this diet course, the other half of the group was administered 1 mg/kg of intranasal (IN) LPS from Escherichia coli O111:B4 (Sigma Aldrich) 24 hours prior to BAL and subsequent euthanasia. 40 D-AA fed animals (20 males, 20 females) were switched to the H-AA diet for washout experiments. […]
Lung, stomach and colon samples were fixed with 4% formaldehyde (freshly prepared from paraformaldehyde), paraffin embedded and cut into 2-4 μm sections. For routine histology, all fixed tissue sections were stained with hematoxylin-eosin (H&E). All slides were evaluated at 10 fields each using a Genetic Pro Bino light microscope (A) and photographed with a digital camera (Delta Optical). Stomach and colon tissue sections were analyzed for signs of active and chronic inflammation, formation of lymph follicles, and hyperplasia of epithelial cells. The severity of lung injury was scored according to lung pathological changes, including interalveolar and perivascular hemorrhages, peri-vascular and peribronchial infiltration, perivascular edema, thickness of alveolar wall, alveolar space value, and emphysematous transformations. Lung tissue samples were additionally stained with commercially available Martius Scarlet Blue (MSB) stain kit (Avantik, USA) for fibrin visualization. The presence of homogeneous fibrin masses of yellow, pink or red color in the lung blood vessels were interpreted as thrombotic masses. […]
Cell free BAL fluid supernatants as well as colon tissue samples were analyzed using commercially available Mouse IL-1B ELISA Kit (R&D systems, Lot P265854, USA) and the Biotek ELx-808 microplate reader (Biotek, USA) according to the instructions recommended by the manufacturer).

[1] = test system: LPS induced acute lung inflammation; experiment: Example 2: LPS induced inflammation, H-AA versus D-AA, male and female mice; type: in vivo; conditions: 6-week course, then single intranasal LPS
Experimental: LPS administration was conducted as per Example 1 above except that four groups of mice were used. The first two groups (1 and 2) were control mice (male and female). The next two groups (3 and 4) of mice received a 6-week course of H-AA (male and female). Finally, the last two groups (5 and 6) of mice received a 6-week course of D6-AA (second group). Groups 3, 4, 5 and 6 then received a single intranasal administration of LPS to induce acute lung inflammation. The degree of the inflammatory response was determined per Example 1. Next, the height and distance of the interalveolar septa was determined to provide for the surface area of the inflammation.

[2] = test system: LPS induced acute lung inflammation; experiment: Example 1: LPS induced acute lung inflammation, interalveolar septa distance; type: in vivo, mice; conditions: for Interalveolar space (average spatial distance for the interalveolar septa): 6-week course, then single intranasal LPS
Description: LPS administration is known to promote inflammation through various mechanisms including secretion of pro-inflammatory cytokines, eicosanoids and induction of ROS. This example employed LPS to ascertain the extent of inflammation arising from ROS induced oxidation of H-AA versus D-AA in the lungs of mice. Specifically, four groups of mice were used. The first group was control mice treated with H-LA control mice. The second group of mice received a 6-week course of D-LA. It is understood that in vivo conversion of a portion of both H-LA and D-LA occurs to provide for AA and 13,13-D2-AA respectively. The third group of mice received a 6-week course of H-AA. The fourth group of mice received a 6-week course of D-AA. All groups then received a single intranasal administration of LPS to induce acute lung inflammation. The degree of the inflammatory response was based on the interalveolar septa distance where the larger the distance of the septa, the greater the degree of inflammation. The animals were sacrificed and the interalveolar septa distance was measured. Table 1 provides an average degree of spatial distance for the interalveolar septa for the results of all groups.

[3] = test system: LPS-induced acute lung injury; experiment: Example 5: response to intranasal LPS in mice fed AA diets (ALI model); type: in vivo, BALB/c and C57BL/6 mice
Experimental: as §1
Male and Female BALB/c and C57BL/6 mice were provided with standard environmental conditions i.e., 22±1° C., 55±5% humidity and 12 h light/dark cycle with free food and water access. At the age of six weeks, animals were split into 8 groups (n=160 total, 20 of each gender) and were continuously fed ad libitum on the diet containing either H-AA or D-AA for 2, 4, 6 or 8 weeks at the daily rate of ca. 5 g of diet per mouse for the duration of the study. The other two groups of animals (n=40, 20 of each gender) received neither PUFA-enriched diets nor LPS served as controls. The body weight and food intake were measured once a week. After completing the appropriate diet course, half of the mice in each group (10 females and 10 males) (i) underwent the procedure of bronchoalveolar lavage (BAL) to accomplish cytological smears, (ii) were subjected to tissue harvesting and collection of colon contents (after humane euthanasia with lethal dose of sodium thiopental, 100 mg/kg intravenously). On the ninth week of this diet course, the other half of the group was administered 1 mg/kg of intranasal (IN) LPS from Escherichia coli O111:B4 (Sigma Aldrich) 24 hours prior to BAL and subsequent euthanasia. 40 D-AA fed animals (20 males, 20 females) were switched to the H-AA diet for washout experiments.
Cell differential counts were performed on smear slides from resuspended cell pellets of BAL, using commercially available May-Grünwald-Giemsa staining kits. All slides were evaluated in a light microscope (Optec BK5000) at ×200 magnification. These cell counts such as lymphocytes, neutrophils, plasmacytes and macrophages were obtained from 10 fields of each slide.
(§2) Lung, stomach and colon samples were fixed with 4% formaldehyde (freshly prepared from paraformaldehyde), paraffin embedded and cut into 2-4 μm sections. For routine histology, all fixed tissue sections were stained with hematoxylin-eosin (H&E). All slides were evaluated at 10 fields each using a Genetic Pro Bino light microscope (A) and photographed with a digital camera (Delta Optical). Stomach and colon tissue sections were analyzed for signs of active and chronic inflammation, formation of lymph follicles, and hyperplasia of epithelial cells. The severity of lung injury was scored according to lung pathological changes, including interalveolar and perivascular hemorrhages, peri-vascular and peribronchial infiltration, perivascular edema, thickness of alveolar wall, alveolar space value, and emphysematous transformations. Lung tissue samples were additionally stained with commercially available Martius Scarlet Blue (MSB) stain kit (Avantik, USA) for fibrin visualization. The presence of homogeneous fibrin masses of yellow, pink or red color in the lung blood vessels were interpreted as thrombotic masses.
We challenged mice fed AA-diets for 6 weeks using LPS treatment. […] Perivascular edema, signs of thrombosis, alveolar wall thickening, irregular distribution of air spaces, and focal areas of alveolar hemorrhage were also observed. We preferred intranasal administration to the more extreme intratracheal route that induces IL-1β which in turn amplifies inflammation making it difficult to distinguish between the early and late consequences of the LPS challenge. Indeed, 24 hours after intranasal administration of LPS at a dose of 1 mg/kg, there was no significant increase in the IL-1B content in BAL fluid or colon homogenates compared to animals not treated with LPS regardless of type or duration of the diets. Intranasal LPS 24 hours post administration increased neutrophils in BAL fluid in all treated groups regardless of gender or form of AA diets.

LPS-treated mice lungs = experiment: Example 5: H-LA / D2-LA by oral gavage, then intranasal LPS, lung histology; type: in vivo, BALB/c mice; conditions: 6 weeks of H-LA or D2-LA, then 1 mg/kg intranasal LPS, 24 hours
Experimental: as §2
In our first experiment, we evaluated the effects of linoleic acid (LA) supplementation on interalveolar septa thickness and AS in LPS-treated mice. […]

[4] = human, in vivo, po; cited from earlier work

Structure (SMILES) | alveolar wall thickness, H-AA versus D-AA cohorts (healthy mice; both, BALB/c and C57BL/6, mouse, 8 weeks) | alveolar spaces (healthy mice; mouse) | average thickness of interalveolar septa, H-AA versus D-AA (healthy mice; mouse) | tolerability (healthy mice; mouse) | Interalveolar space ([1]; female mice) | Interalveolar surface area ([1]; female mice) | Interalveolar space ([1]; male mice) | Interalveolar surface area ([1]; male mice) | Interalveolar space (average spatial distance for the interalveolar septa) [2] | LPS-induced interalveolar septa / wall thickening (in words) ([3]; 6-week diet, then single intranasal LPS) | LPS-induced lung tissue damage, inflammation and emphysema (in words) ([3]; dietary consumption prior to LPS exposure) | alveolar wall / interalveolar septum thickness (in words) (LPS-treated mice lungs) | safety record [4] | reduction in the spatial distance for the interalveolar septa ([2]; D-LA relative to H-LA, comparator for D-AA not stated)
CCCCC/C=C\C/C=C\C/C=C\C/C=C\CCCC(=O)O [H-AA, arachidonic acid, reference compound] | significantly (p≤0.05) thicker | No relevant changes | did not significantly differ | well tolerated without apparent adverse reactions | ~9.7 μm | ~380 μm^2 | ~8.1 μm | ~540 μm^2 | 9.1 μm | significantly increased | did not improve and even aggravated |  |  | 
CCCCC/C=C\C/C=C\CCCCCCCC(=O)O [H-LA, linoleic acid] |  |  |  |  |  |  |  |  | 14.2 μm |  |  | significantly higher |  | 
[2H]C([2H])(/C=C\CCCCC)/C=C\CCCCCCCC(=O)O [D-LA, 11,11-D2-Linoleic Acid] |  |  |  |  |  |  |  |  | 10.7 μm |  |  | small, but statistically significant decrease | impressive safety record | ~25%
